Laboratory results: PubChem BioAssay AID1963850 (Molecular Pharmacology Branch, DTP, NCI, 2024)
pIC50: −log10 of the molar value.

Test system: 192522-019-R-J2-PDC complex tumor spheroid viability
Assay: Anticancer human tumor 192522-019-R-J2-PDC patient-derived colon adenocarcinoma cell line growth inhibition [POLQ]
Conditions: for pIC50: curve of first compound; for viability, T/C: stronger effect = lower value
Summary of the method: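 Growth inhibition in 3D: complex spheroids (tumor PDC, HUVEC, MSC) treated with POLQ inhibitor combinations; where Cmax unknown, highest tested concentration 10 microM, except SN-38 at 1 microM.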

[1] = second compound 0.0316 µM, first compound 0.0316 µM
[2] = second compound 0.0316 µM, first compound 0.1 µM
[3] = second compound 0.0316 µM, first compound 0.316 µM
[4] = second compound 0.0316 µM, first compound 1 µM
[5] = second compound 0.0316 µM, first compound 3.16 µM
[6] = second compound 0.0316 µM, first compound 10 µM
[7] = second compound 0.1 µM, first compound 0.0316 µM
[8] = second compound 0.1 µM, first compound 0.1 µM
[9] = second compound 0.1 µM, first compound 0.316 µM
[10] = second compound 0.1 µM, first compound 1 µM
[11] = second compound 0.1 µM, first compound 3.16 µM
[12] = second compound 0.1 µM, first compound 10 µM
[13] = second compound 0.316 µM, first compound 0.0316 µM
[14] = second compound 0.316 µM, first compound 0.1 µM
[15] = second compound 0.316 µM, first compound 0.316 µM
[16] = second compound 0.316 µM, first compound 1 µM
[17] = second compound 0.316 µM, first compound 3.16 µM
[18] = second compound 0.316 µM, first compound 10 µM
[19] = second compound 1 µM, first compound 0.0316 µM
[20] = second compound 1 µM, first compound 0.1 µM
[21] = second compound 1 µM, first compound 0.316 µM
[22] = second compound 1 µM, first compound 1 µM
[23] = second compound 1 µM, first compound 3.16 µM
[24] = second compound 1 µM, first compound 10 µM
[25] = second compound 3.16 µM, first compound 0.0316 µM
[26] = second compound 3.16 µM, first compound 0.1 µM
[27] = second compound 3.16 µM, first compound 0.316 µM
[28] = second compound 3.16 µM, first compound 1 µM
[29] = second compound 3.16 µM, first compound 3.16 µM
[30] = second compound 3.16 µM, first compound 10 µM
[31] = second compound 10 µM, first compound 0.0316 µM
[32] = second compound 10 µM, first compound 0.1 µM
[33] = second compound 10 µM, first compound 0.316 µM
[34] = second compound 10 µM, first compound 1 µM
[35] = second compound 10 µM, first compound 3.16 µM
[36] = second compound 10 µM, first compound 10 µM
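Further: spheroids exposed to drugs for seven days before reading.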
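Wherever viability, T/C is given: 100% = DMSO vehicle control viability in luminescence.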

In the case of `O=c1[nH]cc(F)c(=O)[nH]1` + COC1C(OC(N)=O)C(O)C(Oc2ccc3c(O)c(NC(=O)c4ccc(O)c(CC=C(C)C)c4)c(=O)oc3c2C)OC1(C)C, the pIC50 (second compound 0.0316 µM) was < 5.00, the pIC50 (second compound 0.1 µM) was < 5.00 and the pIC50 (second compound 0.316 µM) was < 5.00. For the same compound, the pIC50 (second compound 1 µM) was < 5.00, the pIC50 (second compound 3.16 µM) was < 5.00 and the pIC50 (second compound 10 µM) was < 5.00. The viability, T/C [1] was 99.2%, the viability, T/C [2] was 75.7% and the viability, T/C [3] was 78.8%. For the same compound, the viability, T/C [4] was 72.7%, the viability, T/C [5] was 73.8% and the viability, T/C [6] was 64.2%. It also gave a viability, T/C [7] of 91.8%, a viability, T/C [8] of 80.3% and a viability, T/C [9] of 77.4%. For the same compound, the viability, T/C [10] was 71.1%, the viability, T/C [11] was 71% and the viability, T/C [12] was 75.8%. It also gave a viability, T/C [13] of 91%, a viability, T/C [14] of 82% and a viability, T/C [15] of 84.8%. It also gave a viability, T/C [16] of 73.1%, a viability, T/C [17] of 71.1% and a viability, T/C [18] of 68.7%. It also gave a viability, T/C [19] of 89.6%, a viability, T/C [20] of 78.7% and a viability, T/C [21] of 74.7%. It also gave a viability, T/C [22] of 77.1%, a viability, T/C [23] of 70.7% and a viability, T/C [24] of 70.7%. For the same compound, the viability, T/C [25] was 92.5%, the viability, T/C [26] was 86.5% and the viability, T/C [27] was 78.1%. It also gave a viability, T/C [28] of 72.9%, a viability, T/C [29] of 74.8% and a viability, T/C [30] of 73.3%. It also gave a viability, T/C [31] of 92.8%, a viability, T/C [32] of 76.3% and a viability, T/C [33] of 82.7%. It also gave a viability, T/C [34] of 73.1%, a viability, T/C [35] of 77.6% and a viability, T/C [36] of 83.1%.
For `CC(C)n1c(=O)n(C)c2cnc3cc(F)c(-c4ccc(OCCCN5CCCCC5)nc4)cc3c21` + Nc1ccc(C#CCN(C(=O)Cc2ncc(C(F)(F)F)cc2C(F)(F)F)c2ccc(F)cc2)nn1, the pIC50 (second compound 0.0316 µM) was < 5.00, the pIC50 (second compound 0.1 µM) was < 5.00 and the pIC50 (second compound 0.316 µM) was < 5.00. The pIC50 (second compound 1 µM) was < 5.00, the pIC50 (second compound 3.16 µM) was < 5.00 and the pIC50 (second compound 10 µM) was < 5.00. It also gave a viability, T/C [1] of 104%, a viability, T/C [2] of 97.6% and a viability, T/C [3] of 110%. For the same compound, the viability, T/C [4] was 118%, the viability, T/C [5] was 124% and the viability, T/C [6] was 101%. For the same compound, the viability, T/C [7] was 100%, the viability, T/C [8] was 112% and the viability, T/C [9] was 119%. For the same compound, the viability, T/C [10] was 134%, the viability, T/C [11] was 122% and the viability, T/C [12] was 94%. For the same compound, the viability, T/C [13] was 113%, the viability, T/C [14] was 105% and the viability, T/C [15] was 110%. It also gave a viability, T/C [16] of 118%, a viability, T/C [17] of 123% and a viability, T/C [18] of 111%. For the same compound, the viability, T/C [19] was 104%, the viability, T/C [20] was 118% and the viability, T/C [21] was 122%. The viability, T/C [22] was 138%, the viability, T/C [23] was 137% and the viability, T/C [24] was 111%. It also gave a viability, T/C [25] of 116%, a viability, T/C [26] of 104% and a viability, T/C [27] of 116%. The viability, T/C [28] was 127%, the viability, T/C [29] was 120% and the viability, T/C [30] was 112%. For the same compound, the viability, T/C [31] was 105%, the viability, T/C [32] was 104% and the viability, T/C [33] was 117%. For the same compound, the viability, T/C [34] was 127%, the viability, T/C [35] was 127% and the viability, T/C [36] was 114%.
`COc1cc2cc(C(=O)CCC(=O)O)sc2cc1OC` + COC1C(OC(N)=O)C(O)C(Oc2ccc3c(O)c(NC(=O)c4ccc(O)c(CC=C(C)C)c4)c(=O)oc3c2C)OC1(C)C was tested, and the pIC50 (second compound 0.0316 µM) was < 5.00, the pIC50 (second compound 0.1 µM) was < 5.00 and the pIC50 (second compound 0.316 µM) was < 5.00. The pIC50 (second compound 1 µM) was < 5.00, the pIC50 (second compound 3.16 µM) was < 5.00 and the pIC50 (second compound 10 µM) was < 5.00. It also gave a viability, T/C [1] of 101%, a viability, T/C [2] of 94.3% and a viability, T/C [3] of 97.7%. It also gave a viability, T/C [4] of 101%, a viability, T/C [5] of 102% and a viability, T/C [6] of 91.9%. The viability, T/C [7] was 110%, the viability, T/C [8] was 98% and the viability, T/C [9] was 96.9%. It also gave a viability, T/C [10] of 97%, a viability, T/C [11] of 94.9% and a viability, T/C [12] of 106%. For the same compound, the viability, T/C [13] was 105%, the viability, T/C [14] was 88.7% and the viability, T/C [15] was 98.6%. The viability, T/C [16] was 105%, the viability, T/C [17] was 96.9% and the viability, T/C [18] was 105%. The viability, T/C [19] was 105%, the viability, T/C [20] was 97.7% and the viability, T/C [21] was 104%. It also gave a viability, T/C [22] of 111%, a viability, T/C [23] of 105% and a viability, T/C [24] of 101%. For the same compound, the viability, T/C [25] was 103%, the viability, T/C [26] was 103% and the viability, T/C [27] was 107%. For the same compound, the viability, T/C [28] was 105%, the viability, T/C [29] was 114% and the viability, T/C [30] was 96.9%. For the same compound, the viability, T/C [31] was 102%, the viability, T/C [32] was 88.7% and the viability, T/C [33] was 109%. It also gave a viability, T/C [34] of 109%, a viability, T/C [35] of 112% and a viability, T/C [36] of 101%.
